Reference: patent publication US8524718B2, “Heteroaromatic derivatives and their use as positive allosteric modulators of metabotropic glutamate receptors” (Addex Pharma S.A., priority 2007, dated 2013)

Tests used:
[1] = target: T1, recombinant human mGluR4a receptors (Homo sapiens, UniProt Q14833); assay: mGluR4 assay on HEK-expressing human mGluR4 (fluorescent cell based Ca2+ mobilization assay, FLIPR); settings: HEK-293 cells expressing hmGluR4; enhancement of EC25 glutamate response; mean of at least three independent experiments in duplicate; read-out: Ca^2+ Flux (mean EC50)
T1 construct: expressed in transfected cells
T1 sequence (Q14833 33-912): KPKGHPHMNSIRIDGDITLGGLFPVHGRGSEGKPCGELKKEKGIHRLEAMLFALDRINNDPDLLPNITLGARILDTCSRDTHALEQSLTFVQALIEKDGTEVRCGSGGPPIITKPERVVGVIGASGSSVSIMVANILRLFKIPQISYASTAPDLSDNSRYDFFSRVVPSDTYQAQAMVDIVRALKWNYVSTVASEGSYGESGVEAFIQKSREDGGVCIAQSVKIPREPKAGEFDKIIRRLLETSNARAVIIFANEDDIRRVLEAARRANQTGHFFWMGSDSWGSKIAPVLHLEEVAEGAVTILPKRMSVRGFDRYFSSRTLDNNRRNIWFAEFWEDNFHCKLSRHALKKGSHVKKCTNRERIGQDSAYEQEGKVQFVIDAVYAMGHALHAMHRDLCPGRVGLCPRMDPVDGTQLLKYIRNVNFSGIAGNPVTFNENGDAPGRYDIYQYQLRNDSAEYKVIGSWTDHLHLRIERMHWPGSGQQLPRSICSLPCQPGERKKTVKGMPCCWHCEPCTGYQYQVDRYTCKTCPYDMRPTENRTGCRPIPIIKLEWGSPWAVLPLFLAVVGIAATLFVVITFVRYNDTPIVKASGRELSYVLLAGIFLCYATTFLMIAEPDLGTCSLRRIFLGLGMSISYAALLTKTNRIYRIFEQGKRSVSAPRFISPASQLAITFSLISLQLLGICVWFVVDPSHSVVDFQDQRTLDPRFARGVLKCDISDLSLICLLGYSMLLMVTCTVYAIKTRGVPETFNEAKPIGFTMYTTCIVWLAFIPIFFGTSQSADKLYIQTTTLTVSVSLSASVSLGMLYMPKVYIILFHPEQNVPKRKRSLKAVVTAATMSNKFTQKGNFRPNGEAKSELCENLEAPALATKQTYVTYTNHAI
Text: mGluR4 Assay on HEK-Expressing Human mGluR4 The compounds of the present invention are positive allosteric modulators of mGluR4 receptor. Their activity was examined on recombinant human mGluR4a receptors by detecting changes in intracellular Ca^2+ concentration, using the fluorescent Ca^2+-sensitive dye Fluo-4-(AM) and a Fluorometric Imaging Plate Reader (FLIPR, Molecular Devices, Sunnyvale, Calif.) The cDNA encoding the human metabotropic glutamate receptor (hmGluR4), (accession number NM_000841.1, NCBI Nucleotide database browser), was subcloned into an expression vector containing also the hygromycin resistance gene. In parallel, the cDNA encoding a G protein allowing redirection of the activation signal to intracellular calcium flux was subcloned into a different expression vector containing also the puromycin resistance gene. Transfection of both these vectors into HEK293 cells with PolyFect reagent (Qiagen) according to supplier's protocol, and hygromycin and puromycin treatment allowed selection of antibiotic resistant cells which had integrated stably one or more copies of the plasmids. Positive cellular clones expressing hmGluR4 were identified in a functional assay measuring changes in calcium fluxes in response to glutamate or selective known mGluR4 orthosteric agonists and antagonists. HEK-293 cells expressing hmGluR4 were maintained in media containing DMEM, dialyzed Fetal Calf Serum (10%), Glutamax™ (2 mM), Penicillin (100 units/mL), Streptomycin (100 μg/mL), Geneticin (100 μg/mL) and Hygromycin-B (40 μg/mL) and puromycin (1 μg/mL) at 37° C./5% CO2. Human mGluR4 HEK-293 cells were plated out 24 hours prior to FLIPR^384 assay in black-walled, clear-bottomed, poly-L-ornithine-coated 384-well plates at a density of 25,000 cells/well in a glutamine/glutamate free DMEM medium containing foetal bovine serum (10%), penicillin (100 units/mL) and streptomycin (100 μg/mL) at 37 C/5% CO2. On the day of the assay, the medium was aspirated and the cells were loaded with a 3 μM solution of Fluo-4-AM (LuBioScience, Lucerne, Switzerland) in 0.03% pluronic acid. After 1 hour at 37 C/5% CO2, the non incorporated dye was removed by washing cell plate with the assay buffer and the cells were left in the dark at room temperature for six hours before testing. All assays were performed in a pH 7.4 buffered-solution containing 20 mM HEPES, 143 mM NaCl, 6 mM KCl, 1 mM MgSO4, 1 mM CaCl2, 0.125 mM sulfapyrazone, 0.1% glucose. After 10 s of basal fluorescence recording, various concentrations of the compounds of the invention were added to the cells. Changes in fluorescence levels were first monitored for 180 s in order to detect any agonist activity of the compounds. Then the cells were stimulated by an EC25 glutamate concentration for an additional 110 s in order to measure enhancing activities of the compounds of the invention. EC25 glutamate concentration is the concentration giving 25% of the maximal glutamate response. The concentration-response curves of representative compounds of the present invention were generated using the Prism GraphPad software (Graph Pad Inc, San Diego, USA). The curves were fitted to a four-parameter logistic equation: (Y=Bottom+(Top−Bottom)/(1+10^((Log EC50−X)*Hill Slope) allowing the determination of EC50 values. The Table 5 below represents the mean EC50 obtained from at least three independent experiments of selected molecules performed in duplicate.

With `Cc1n[nH]cc1-c1nsc(Nc2ccccc2)n1` [Compound 1-1, 3-(3-methyl-1H-pyrazol-4-yl)-N-phenyl-1,2,4-thiadiazol-5-amine] as the compound, how does the EC50 [1] read?
Its EC50 is 1000 to 10000 nM.

With `CC(=O)n1cc(-c2nsc(Nc3ccccc3)n2)c(C)n1` [Compound 1-2, 1-(3-Methyl-4-(5-(phenylamino)-1,2,4-thiadiazol-3-yl)-1H-pyrazol-1-yl)ethanone] as the compound, how does the EC50 [1] read?
Its EC50 is 1000 to 10000 nM.

And the melting point?
The melting point was 204 to 208 °C.

For `Cc1n[nH]cc1-c1nsc(Nc2ccccc2Cl)n1` [Compound 1-3, N-(2-Chlorophenyl)-3-(3-methyl-1H-pyrazol-4-yl)-1,2,4-thiadiazol-5-amine], which EC50 [1] is on record?
Its EC50 is 1000 to 10000 nM.

And the melting point?
The melting point was 180 to 182 °C.

With `Cc1n[nH]cc1-c1nsc(Nc2ccccc2F)n1` [Compound 1-4, N-(2-Fluorophenyl)-3-(3-methyl-1H-pyrazol-4-yl)-1,2,4-thiadiazol-5-amine] as the compound, how does the EC50 [1] read?
Its EC50 is 500 to 1000 nM.

For `Cc1n[nH]cc1-c1nsc(Nc2ccccn2)n1` [Compound 1-5, 3-(3-Methyl-1H-pyrazol-4-yl)-N-(pyridin-2-yl)-1,2,4-thiadiazol-5-amine], which EC50 [1] is on record?
The EC50 was 1000 to 10000 nM.

What about the melting point of the same compound?
The melting point was greater than 280 °C.

Which EC50 [1] does the source give for `c1ccc(Nc2nc(-c3cn[nH]c3)ns2)cc1` [Compound 1-6, N-Phenyl-3-(1H-pyrazol-4-yl)-1,2,4-thiadiazol-5-amine] here?
Its EC50 is 1000 to 10000 nM.

What about the melting point of the same compound?
Its melting point is 192 °C.

Which results are given for `Cc1n[nH]cc1-c1csc(Nc2ccccc2)n1` [Compound 1-7, 4-(3-Methyl-1H-pyrazol-4-yl)-N-phenylthiazol-2-amine]?
EC50 [1]: 1000 to 10000 nM; melting point: 200 to 202 °C

For `CCCc1n[nH]cc1-c1nsc(Nc2ccccc2)n1` [Compound 1-8, N-Phenyl-3-(3-propyl-1H-pyrazol-4-yl)-1,2,4-thiadiazol-5-amine], which EC50 [1] is on record?
The EC50 was 1000 to 10000 nM.

And the melting point?
Its melting point is 170 to 172 °C.

What does the source list for `CCCc1n[nH]cc1-c1nsc(Nc2ccccn2)n1` [Compound 1-9, 3-(3-Propyl-1H-pyrazol-4-yl)-N-(pyridin-2-yl)-1,2,4-thiadiazol-5-amine]?
EC50 [1]: 1000 to 10000 nM; melting point: 248 to 250 °C

Which EC50 [1] does the source give for `FC(F)(F)c1n[nH]cc1-c1nsc(Nc2ccccn2)n1` [Compound 1-10, N-(Pyridin-2-yl)-3-(3-(trifluoromethyl)-1H-pyrazol-4-yl)-1,2,4-thiadiazol-5-amine] here?
Its EC50 is 500 to 1000 nM.

What about the melting point of the same compound?
Its melting point is greater than 260 °C.

Which EC50 [1] does the source give for `Cc1n[nH]cc1-c1csc(Nc2ccccn2)n1` [Compound 1-11, 4-(3-Methyl-1H-pyrazol-4-yl)-N-(pyridin-2-yl)thiazol-2-amine] here?
The EC50 was less than 500 nM.

What about the melting point of the same compound?
The melting point was 255 to 257 °C.

For `FC(F)(F)c1n[nH]cc1-c1csc(Nc2ccccn2)n1` [Compound 1-12, N-(Pyridin-2-yl)-4-(3-(trifluoromethyl)-1H-pyrazol-4-yl)thiazol-2-amine], which EC50 [1] is on record?
The EC50 was 500 to 1000 nM.

What about the melting point of the same compound?
The melting point was 250 °C.

Which EC50 [1] does the source give for `CC(C)c1n[nH]cc1-c1csc(Nc2ccccn2)n1` [Compound 1-13, 4-(3-Isopropyl-1H-pyrazol-4-yl)-N-(pyridin-2-yl)thiazol-2-amine] here?
The EC50 was 1000 to 10000 nM.

What about the melting point of the same compound?
The melting point was 195 °C.

For `Cc1sc(Nc2ccccn2)nc1-c1cn[nH]c1` [Compound 1-16, 5-Methyl-4-(1H-pyrazol-4-yl)-N-(pyridin-2-yl)thiazol-2-amine], which EC50 [1] is on record?
The EC50 was less than 500 nM.

What about the melting point of the same compound?
The melting point was 291 to 294 °C.

For `Cc1cccc(Nc2nc(-c3cn[nH]c3)c(C)s2)n1` [Compound 1-18, 5-Methyl-N-(6-methylpyridin-2-yl)-4-(1H-pyrazol-4-yl)thiazol-2-amine], which EC50 [1] is on record?
Its EC50 is less than 500 nM.

What about the melting point of the same compound?
The melting point was 306 °C.

For `c1ccc(Nc2nc(-c3cn[nH]c3)cs2)nc1` [Compound 1-25, N-(4-(1H-pyrazol-4-yl)thiazol-2-yl)pyridin-2-amine], which EC50 [1] is on record?
The EC50 was less than 500 nM.

And the melting point?
Its melting point is 261 to 262 °C.

With `Cc1sc(Nc2ccccn2)nc1-c1cnn(C(N)=O)c1` [Compound 1-27, 4-(5-Methyl-2-(pyridin-2-ylamino)thiazol-4-yl)-1H-pyrazole-1-carboxamide] as the compound, how does the EC50 [1] read?
Its EC50 is less than 500 nM.

What about the melting point of the same compound?
Its melting point is 294 to 296 °C.

With `Cc1sc(Nc2cccc(Cl)n2)nc1-c1cn[nH]c1` [Compound 1-31, N-(6-Chloropyridin-2-yl)-5-methyl-4-(1H-pyrazol-4-yl)thiazol-2-amine] as the compound, how does the EC50 [1] read?
Its EC50 is less than 500 nM.

And the melting point?
The melting point was 290 °C (dec.).

What does the source list for `Clc1sc(Nc2ccccn2)nc1-c1cn[nH]c1` [Compound 1-32, 5-Chloro-4-(1H-pyrazol-4-yl)-N-(pyridin-2-yl)thiazol-2-amine]?
EC50 [1]: < 500 nM; melting point: 282 to 285 °C

With `Cc1sc(Nc2cccc(F)n2)nc1-c1cn[nH]c1` [Compound 1-33, N-(6-Fluoropyridin-2-yl)-5-methyl-4-(1H-pyrazol-4-yl)thiazol-2-amine] as the compound, how does the EC50 [1] read?
Its EC50 is less than 500 nM.

And the melting point?
Its melting point is 290 °C (dec.).

Which results are given for `Cc1n[nH]cc1-c1nsc(Nc2cccc(F)n2)n1` [Compound 1-43, N-(6-Fluoropyridin-2-yl)-3-(3-methyl-1H-pyrazol-4-yl)-1,2,4-thiadiazol-5-amine]?
EC50 [1]: < 500 nM; melting point: > 300 °C

Which EC50 [1] does the source give for `Cc1sc(Nc2ncccc2F)nc1-c1cn[nH]c1` [Compound 1-46, N-(3-Fluoropyridin-2-yl)-5-methyl-4-(1H-pyrazol-4-yl)thiazol-2-amine] here?
Its EC50 is less than 500 nM.

And the melting point?
Its melting point is 300 °C (dec.).

Which EC50 [1] does the source give for `N#Cc1sc(Nc2ccccn2)nc1-c1cn[nH]c1` [Compound 1-47, 4-(1H-Pyrazol-4-yl)-2-(pyridin-2-ylamino)thiazol-5-carbonitrile] here?
Its EC50 is less than 500 nM.

And the melting point?
The melting point was 250 °C (dec.).

With `Clc1cccc(Nc2nc(-c3cn[nH]c3)cs2)n1` [Compound 1-49, N-(6-Chloropyridin-2-yl)-4-(1H-pyrazol-4-yl)thiazol-2-amine] as the compound, how does the EC50 [1] read?
The EC50 was less than 500 nM.

What about the melting point of the same compound?
The melting point was 295 °C (dec.).

With `Fc1cccc(Nc2nc(-c3cn[nH]c3)cs2)n1` [Compound 1-51, N-(6-Fluoropyridin-2-yl)-4-(1H-pyrazol-4-yl)thiazol-2-amine] as the compound, how does the EC50 [1] read?
The EC50 was less than 500 nM.

And the melting point?
Its melting point is 281 to 285 °C.

Which results are given for `Cc1cccc(Nc2nc(-c3cn[nH]c3)cs2)n1` [Compound 1-53, N-(6-Methylpyridin-2-yl)-4-(1H-pyrazol-4-yl)thiazol-2-amine]?
EC50 [1]: < 500 nM; melting point: 259 to 260 °C

What does the source list for `FC(F)(F)c1sc(Nc2ccccn2)nc1-c1cn[nH]c1` [Compound 1-54, 4-(1H-Pyrazol-4-yl)-N-(pyridin-2-yl)-5-(trifluoromethyl)thiazol-2-amine]?
EC50 [1]: 500 to 1000 nM; melting point: 250 °C (dec.)

With `Fc1sc(Nc2ccccn2)nc1-c1cn[nH]c1` [Compound 1-56, 5-Fluoro-4-(1H-pyrazol-4-yl)-N-(pyridin-2-yl)thiazol-2-amine] as the compound, how does the EC50 [1] read?
The EC50 was less than 500 nM.

Which EC50 [1] does the source give for `c1ccc(Nc2nc(-c3c[nH]nc3C3CC3)cs2)nc1` [Compound 1-60, 4-(3-Cyclopropyl-1H-pyrazol-4-yl)-N-(pyridin-2-yl)thiazol-2-amine] here?
Its EC50 is less than 500 nM.

What about the melting point of the same compound?
The melting point was 211 to 213 °C.

For `CCc1n[nH]cc1-c1csc(Nc2ccccn2)n1` [Compound 1-61, 4-(3-Ethyl-1H-pyrazol-4-yl)-N-(pyridin-2-yl)thiazol-2-amine], which EC50 [1] is on record?
The EC50 was less than 500 nM.

What about the melting point of the same compound?
The melting point was 196 to 198 °C.
